This is an account of results in ChEMBL document CHEMBL4342446, “Isopimarane Diterpenoids from the Rhizomes of Kaempferia marginata and Their Potential Anti-inflammatory Activities” (J Nat Prod, 2020).

Structures are written as SMILES.

One data set deals with RAW264.7. As to the kind of experiment: Anti-inflammatory activity in mouse RAW264.7 cells assessed as inhibition of lipopolysaccharide-induced nitric oxide production. Format: functional, cell-based.
Take `C=C[C@]1(C)C=C2C(=O)C[C@H]3C(C)(C)CC[C@H](O)[C@]3(C)[C@H]2CC1`: the IC50 is > 50 µM. In the case of `C=C[C@]1(C)C=C2CC[C@H]3C(C)(C)C[C@H](O)[C@H](O)[C@]3(C)[C@H]2CC1`, the IC50 was 40.3 µM. The same measure, in the same setting: the figure for `C=C[C@]1(C)C=C2CC[C@H]3C(C)(C)CC[C@H](O)[C@]3(C)[C@H]2CC1` is 50 µM. Same read-out and setting: as for `C=C[C@]1(C)C=C2CC[C@H]3C(C)(C)C[C@H](O)[C@H](OC(C)=O)[C@]3(C)[C@H]2CC1`, the figure is > 50 µM; as for `C=C[C@]1(C)C=C2C[C@@H](O)[C@H]3C(C)(C)C[C@H](O)[C@H](O)[C@]3(C)[C@H]2CC1`, > 50 µM. The same measure, in the same setting: the figure for `C=C[C@]1(C)C=C2C[C@@H](OC(C)=O)[C@H]3C(C)(C)[C@@H](O)CC(=O)[C@]3(C)[C@H]2[C@@H](O)C1` is > 50 µM; for `C=C[C@]1(C)C=C2[C@@H](O)C[C@H]3C(C)(C)C[C@H](O)[C@H](O)[C@]3(C)[C@H]2CC1` it is > 50 µM. Turning to `C=C[C@]1(C)C=C2CC[C@H]3C(C)(C)[C@H](O)C[C@H](O)[C@]3(C)[C@H]2[C@H](O)C1`, the IC50 turned out to be 28.1 µM. Same read-out and setting: the figure for `C=C[C@]1(C)C=C2C(=O)C[C@H]3C(C)(C)C[C@H](O)C[C@]3(C)[C@H]2CC1` is > 50 µM; for `C=C[C@]1(C)C=C2CC[C@H]3C(C)(C)[C@@H](O)C[C@H](O)[C@]3(C)[C@H]2[C@H](O)C1` it is > 50 µM; for `C=C[C@]1(C)C=C2CC[C@H]3C(C)(C)CC[C@H](O)[C@]3(C)[C@H]2[C@H](O)C1` it is 36.7 µM.

For the molecule `C=C[C@]1(C)C=C2[C@H](O)C[C@H]3C(C)(C)CC[C@H](O)[C@]3(C)[C@H]2[C@H](O)C1`, the IC50 is > 50 µM. As to `C[C@@H]1C[C@H]2[C@@H]3CCC4=CC(=O)C=C[C@]4(C)[C@@]3(F)[C@@H](O)C[C@]2(C)[C@@]1(O)C(=O)CO` [DEXAMETHASONE], the IC50 turned out to be 5.5 µM.

The test system of a further data set is RAW264.7. As to the kind of experiment: Cytotoxicity against mouse RAW264.7 cells. Format: cell-based.
Consider `C=C[C@]1(C)C=C2CC[C@H]3C(C)(C)[C@H](O)C[C@H](O)[C@]3(C)[C@H]2[C@H](O)C1`, for which the Activity entry is “Non-Toxic”.
